For one data set, the system named is SKOV-3. Briefly: Cytotoxicity (growth inhibition), 96 hour exposure, ovarian cell line panel. The conditions noted are these: read-out: Cytotoxicity IC50, SKOV-3, SKOV-3 ovarian cell line.
For a further data set, the system named is A2780. Described as above. The note with it: read-out: Cytotoxicity IC50, A2780.
The subject of another data set is CH1. The data set is described as above. The note with it: read-out: Cytotoxicity IC50, CH1.
The subject of the next data set is A2780-PT^R. Described as above. The conditions noted are these: read-out: Cytotoxicity IC50, A2780-PT^R.
Data set [1] concerns A/T sites of a natural DNA fragment. Briefly: DNase I footprinting with a natural DNA fragment. It counts as binding. The note with it: for DNA site preference: natural DNA fragment. The text has this:
The ability of the head-to-head bis-benzimidazoles to discriminate between the 136 possible tetranucleotide sequences may be further enhanced by flanking sequence preferences. These remain to be systematically explored.

Another data set has as its system MCF-7 (breast). Briefly: Growth inhibition, carcinoma cell lines (MTT assay or cell counting). The class given is cell-based. The note with it: 96 hour exposure, repeat determinations. The procedure:
Compounds 8 and 13 were then tested more extensively against a range of carcinoma cell lines: MCF-7 (breast,); RKO and H630 (colon); A2780 and OAW42 (ovary) and H838 (lung).
Figures in bold were determined using cell counting method, all other values by the MTT assay.
The growth inhibition assays reported above were carried out using standard techniques, some examples of which are detailed below.
In general terms: Tetrazolium assays rely on reduction of a dye to a coloured formazan, in cell work by metabolically active cells.

Data set [2] deals with ovarian carcinoma cell lines. Briefly: Cytotoxicity across the group of four ovarian carcinoma cell lines. The conditions noted are these: versus compounds 8 and 9; in three out of the four lines. The class given is cell-based, human.
Description: Assessment of growth inhibition was performed in a small panel of (e.g.) human ovarian carcinoma cell lines using the Sulforhodamine B (SRB assay) (Kelland et al, Cancer Research 54, 5618-5622 (1994). The cell lines grew as monolayers in Dulbecco's Modified Eagle's medium containing 10% foetal bovine serum (Imperial Laboratories, Andover, UK) supplemented with 2 mM glutamine and 0.5 μg/ml hydrocortisone in 6% CO2/94% air. The compound to be tested was dissolved in 10% dimethylsulfoxide. Cells were seeded into 96-well microtitre plates at 3000-5000 per well and allowed to attach overnight. Serial dilutions of drug in growth medium were then added to quadruplicate wells (with 8 control untreated wells) and left to incubate under normal growth conditions for 96 hr, unless otherwise stated. The medium was then removed and wells fixed with 10% trichloroacetic acid and stained with 0.4% SRB in 1% acetic acid as described previously (Kelland et al ref). Basic amino acid content in each well was then measured by solubilizing the bound SRB with 10 mM Tris and using a Titertek Multiscan MCC/340 MKII plate reader set at 540 nm. Mean absorbance was then expressed as a percentage of the control untreated well absorbance and plotted vs drug concentration. […]
For data set [3], the system named is ovarian lines in the NCI 60-cell line panel. Briefly: NCI 60-cell line panel. The class given is cell-based. The conditions noted are these: several ovarian lines.
For data set [4], the system named is transcription at A/T sites. Briefly: In vitro transcription assay. The class given is biochemical. The text has this: Compound (13) has been examined in an in vitro transcription assay. […] In addition, compound (13) inhibited transcription at least 10-fold more efficiently than compound (9), consistent with its increased cytoxicity. It is thus tempting to speculate that the activity of (13) in vitro and in vivo may be related to its potent ability to inhibit transcription specifically at a small sub-set of A/T sites.

A word on the IC50: it is the point on the concentration scale where inhibition reaches its midpoint.

Where “and” joins values, the source holds several entries; their conditions need not be identical. Equal entries are not always repeated. Some results are limits rather than exact numbers.

Description for A2780-PT^R: (§1) Assessment of growth inhibition was performed in a small panel of (e.g.) human ovarian carcinoma cell lines using the Sulforhodamine B (SRB assay) (Kelland et al, Cancer Research 54, 5618-5622 (1994). The cell lines grew as monolayers in Dulbecco's Modified Eagle's medium containing 10% foetal bovine serum (Imperial Laboratories, Andover, UK) supplemented with 2 mM glutamine and 0.5 μg/ml hydrocortisone in 6% CO2/94% air. The compound to be tested was dissolved in 10% dimethylsulfoxide. Cells were seeded into 96-well microtitre plates at 3000-5000 per well and allowed to attach overnight. Serial dilutions of drug in growth medium were then added to quadruplicate wells (with 8 control untreated wells) and left to incubate under normal growth conditions for 96 hr, unless otherwise stated. The medium was then removed and wells fixed with 10% trichloroacetic acid and stained with 0.4% SRB in 1% acetic acid as described previously (Kelland et al ref). Basic amino acid content in each well was then measured by solubilizing the bound SRB with 10 mM Tris and using a Titertek Multiscan MCC/340 MKII plate reader set at 540 nm. Mean absorbance was then expressed as a percentage of the control untreated well absorbance and plotted vs drug concentration. Comparisons were made in terms of IC50 values, (the concentration that reduced the mean absorbance to 50% of those in control wells) and Resistance Factors (RF, the IC50 in a resistant subline vs its parent line).
Description for CH1: as §1
Description for SKOV-3: as §1

On to `CN1CCN(c2ccc3[nH]c(-c4ccc5[nH]c(-c6ccc(O)cc6)nc5c4)nc3c2)CC1` [Hoechst 33258, reference compound], for which the IC50 in the data set on SKOV-3 was greater than 100 µM; in the data set on A2780, 12 µM; in the data set on CH1, 26.5 µM; in the data set with A2780-PT^R, 9.5 µM.

For the molecule `Oc1ccc(-c2nc3cc(-c4ccc5[nH]c(-c6ccc(O)cc6)nc5c4)ccc3[nH]2)cc1` [Compound 9, 4′,4′-[5,5-bi-1H-Benzimidazole]-2,2-diylbis-phenol], the IC50 in the data set on SKOV-3 is 16 µM; in the data set on A2780 it was 4.3 µM; in the data set on CH1, 1.05 µM; with A2780-PT^R it was 2.7 µM. Also, the DNA site preference result in data set [1] is “interact preferentially with some A/T sites”.

Turning to `CN(C)CCCOc1ccc(-c2nc3cc(-c4ccc5[nH]c(-c6ccc(OCCCN(C)C)cc6)nc5c4)ccc3[nH]2)cc1` [Compound 13, 2,2-bis-[4′-(3″-Dimethylamino-1″-propyloxy)phenyl]-5,5-bi-1H-benzimidazole], the half-inhibitory concentration (IC50) in the data set with SKOV-3 is 0.375 µM; in the data set with A2780, 0.235 µM; in the data set on CH1 it was 0.24 µM; with MCF-7 (breast), 0.043 µM and 0.069 µM; with A2780-PT^R, 0.115 µM. For the same molecule, the “cytotoxic activity, fold more active than the others” value in [2] is on record as “over 10 fold”. Moreover, the “activity in ovarian lines of NCI 60-cell line panel” value in [3] is given as “significant activity”. Moreover, the “affinity for 5′-TATA sites” value in data set [1] (5′-TATA sites) is given as “relatively low affinity”. Also, the DNA site preference entry in data set [1] is given as “interact preferentially with some A/T sites”. Further, the Kd in data set [1] (quantitative DNase I footprinting, 5′-AATT site, read-out: affinity for the 5′-AATT site) is 0.03 µM. Besides, the “binding to AT-sites, fold better than compound (9)” value in data set [1] (relative to compound (9)) is recorded as 7-10 fold. In data set [4] (at a number of A/T sites), the inhibition of transcription entry is listed as “effectively inhibits transcription at a number of A/T sites”. Besides, the “inhibition of transcription, fold more efficient than compound (9)” value in data set [4] (relative to compound (9)) was “at least 10 fold”.

The values are drawn from patent US6589971B1, “Bis-benzazoles and their use as antineoplastic agents” (The Queens University of Belfast, priority 1999, dated 2003).
